# Data as given in patent publication US4343795A, “Biologically active amides” (priority 1977, dated 1982).
# Structures can show the parent of a compound that is named as a salt. Non-standard residues stand in square brackets, D forms with d. Residues, ends and D or L forms follow the SMILES beside them. Phe(4-NO2) = N[C@@H](Cc1ccc([N+](=O)[O-])cc1)C(=O)O
# Legend:
# [1] = system: mice; assay: Analgesia in mice in the writhing test; assay type: in vivo; details: mouse, p.o.
# From the text: As a further example the compounds are effective in reducing acetic acid-induced writhing in mice when tested by a modification of the method of Henderson et. al., J. Pharm. Exp. Therap. 125 (1959), 237; the compounds being administered orally and this reduction in writhing is abolished by naloxone.
# (D) Analgesia in mice in the writhing test (modification of the method of Henderson et. al. (J. Pharm. Exp. Therap., 125,(1959),237) the peptide being administered orally.
# (§1) From the data obtained the respective ED50 figures were calculated (i.e. the dose required to elicit the appropriate effect in 50% of the animals). N.T.: not tested.
# [2] = system: rat; assay: Antidiarrhoeal activity in the rat (castor oil); assay type: in vivo; details: for ANTIDARRHOEA ED50 p.o. / ANTIDARRHOEA ED50 s.c.: castor oil 15 minutes after peptide
# Procedure: (B) Antidiarrhoeal activity in the rat. In this procedure rats were starved for 24 hours, the peptide then administered either subcutaneously or orally followed after 15 minutes by 1 ml. castor oil per rat given orally.
# as §1
# [3] = system: mice; assay: Analgesia in mice in the hot plate test; assay type: in vivo; details: i.c.v.
# Procedure: (A) Analgesia in mice in the hot plate test (modification of the method of Eddy, N. B. et al., J. Pharm. Exp. Therap. (1953) 107, 385, the peptide being administered by intracerebroventricular injection).
# as §1
# [4] = system: guinea-pigs; assay: Anti-tussive testing, citric acid aerosol in guinea-pigs; assay type: in vivo; details: guinea-pig; for ANTITUSSIVE ED50 p.o.: 20% citric acid aerosol 30 minutes after compound
# Procedure: J. Pharmacol., 39, (1970) 225.
# (C) For anti-tussive testing, guinea-pigs are subjected to an aerosol containing 20% citric acid, 30 minutes after administration of compound (orally or subcutaneously). The number of coughs during a five minute exposure are counted and meaned for six animals per treatment. The method is that described by Boura, A. L. A., Green, A. F. and Saunders, I. A. Br. J. Pharmac., May 1970, Vol. 39, No. 1, page 225.
# as §1
# [5] = system: laboratory animals including rats and mice; assay: Induction of anaesthesia / abolition of the righting reflex in laboratory animals; details: laboratory animals such as mice, up to lethal doses
Molecule,ANALGESIA: WRITHING ED50 [1] [mg/kg],ANTIDARRHOEA ED50 p.o. [2] [mg/kg],ANTIDARRHOEA ED50 s.c. [2] [mg/kg],ANALGESIA: MOUSE HOT PLATE ED50 [3] [μg/mouse],ANTITUSSIVE ED50 p.o. [4] [mg/kg],ANTITUSSIVE (ED50 column): activity at 10 p.o. ([4]; at 10 mg/kg p.o.),ANTIDARRHOEA p.o. (ED50 column): activity at 10 ([2]; at 10 mg/kg p.o.),Abolition of the righting reflex [5]
"CSCC[C@@H](NC(=O)[C@@H](N)Cc1ccc(O)cc1)C(=O)NCC(=O)N[C@@H](Cc1ccc([N+](=O)[O-])cc1)C(=O)N1CCC[C@H]1C(N)=O [Example 1, H.Tyr.D-Met.Gly.Phe(4NO2).Pro.NH2] (H-Y[dM]G[Phe(4-NO2)]P-NH2)",35,2,0.05,0.007,0.7,–,–,–
"CSCC[C@@H](NC(=O)[C@@H](N)Cc1ccc(O)cc1)C(=O)NCC(=O)N[C@@H](Cc1ccccc1)C(=O)N1CCC[C@@H]1C(=O)O [Example 3, H.Tyr.D-Met.Gly.Phe.D-Pro.OH HCl] (H-Y[dM]GF[dP]-OH)",–,7,2,0.005,–,None,–,–
"CSCC[C@@H](NC(=O)[C@@H](N)Cc1ccc(O)cc1)C(=O)NCC(=O)N[C@@H](Cc1ccc([N+](=O)[O-])cc1)C(=O)N1CCC[C@H]1C(=O)O [Example 4, H.Tyr.D-Met.Gly.Phe(4NO2).Pro.OH HCl] (H-Y[dM]G[Phe(4-NO2)]P-OH)",–,–,0.2,0.07,–,–,None,–
CN1CC[C@]23c4c5ccc(O)c4O[C@H]2[C@@H](O)C=C[C@H]3[C@H]1C5 [morphine],–,–,–,–,–,–,–,does not abolish the righting reflex
H.Tyr.D-Met(O2).Gly.Phe(4NO2).Pro.NH2 [Example 7],–,0.3,0.05,0.00008,3,–,–,–
H.Tyr.D-Met.Gly.Phe(4Cl).Pro.NH2 [Example 9],–,10,0.2,0.005,–,–,–,–
Tyr.D-Met.Gly.Phe(4NO2).homoPro.NH2 [Example 21],–,2,0.03,0.003,–,–,–,–
